Where two headings read alike, the source gives them in different places.
Test system: 134 cancer cell lines
Test: Cell viability assay (ATPlite, 72 hours), IC50 on cancer cell line panel

SMILES: CCc1nc(C(N)=O)c(Nc2ccc(N3CCC(N4CCN(C)CC4)CC3)c(OC)c2)nc1NC1CCOCC1 [gilteritinib]
- IC50 (Homo sapiens, MOLM-13, read-out: IC50 in cell proliferation assay, MOLM-13 cell line (FLT3 ITD)): 4 nM
- IC50 (Homo sapiens, MOLT-4, read-out: IC50 in cell proliferation assay, MOLT-4 cell line): 1000 nM
- IC50 (Homo sapiens, MV4-11, read-out: IC50 in cell proliferation assay, MV4-11 cell line (FLT3 ITD)): 0.832 nM
- IC50 (Homo sapiens, MeWo, read-out: IC50 in cell proliferation assay, MeWo cell line): 336 nM
- IC50 (Homo sapiens, NCCIT, read-out: IC50 in cell proliferation assay, NCC-IT cell line): 307 nM
- IC50 (Homo sapiens, NCI-H82, read-out: IC50 in cell proliferation assay, cell line NCI-H82): 300 nM
- IC50 (Homo sapiens, NCI-H460, read-out: IC50 in cell proliferation assay, NCI-H460 cell line): 499 nM
- IC50 (Homo sapiens, NCI-H661, read-out: IC50 in cell proliferation assay, NCI-H661 cell line): 233 nM
- IC50 (Homo sapiens, NCI-H716, read-out: IC50 in cell proliferation assay, cell line NCI-H716 (FGFR2-COL14A1)): 584 nM
- IC50 (Homo sapiens, NCI-H1650, read-out: IC50 in cell proliferation assay, NCI-H1650 cell line (EGFR exon19del)): 471 nM
- IC50 (Homo sapiens, NCI-H1975, read-out: IC50 in cell proliferation assay, NCI-H1975 cell line (EGFR p.L858R + p.T790M)): 495 nM
- IC50 (Homo sapiens, NCI-H2228, read-out: IC50 in cell proliferation assay, NCI-H2228 cell line (EML4-ALK)): 1.84 nM
- IC50 (Homo sapiens, OVCAR-3, read-out: IC50 in cell proliferation assay, cell line OVCAR-3): 591 nM
- IC50 (Homo sapiens, PFSK-1, read-out: IC50 in cell proliferation assay, cell line PFSK-1): 319 nM
- IC50 (Homo sapiens, RL95-2, read-out: IC50 in cell proliferation assay, cell line RL95-2 (EGFR p.A289V)): 177 nM
- IC50 (Homo sapiens, RPMI-7951, read-out: IC50 in cell proliferation assay, cell line RPMI-7951 (BRAF p.V600E)): 645 nM
- IC50 (Homo sapiens, RS4-11, read-out: IC50 in cell proliferation assay, cell line RS4;11): 388 nM
- IC50 (Homo sapiens, Rec1, read-out: IC50 in cell proliferation assay, cell line REC-1): 1390 nM
- IC50 (Homo sapiens, SHP77, read-out: IC50 in cell proliferation assay, cell line SHP-77): 2470 nM
- IC50 (Homo sapiens, SK-BR-3, read-out: IC50 in cell proliferation assay, cell line SK-BR-3 (ERBB2 amplification)): 12500 nM
- IC50 (Homo sapiens, SK-N-AS, read-out: IC50 in cell proliferation assay, cell line SK-N-AS): 439 nM
- IC50 (Homo sapiens, SK-N-FI, read-out: IC50 in cell proliferation assay, cell line SK-N-FI): 242 nM
- IC50 (Homo sapiens, SK-N-MC, read-out: IC50 in cell proliferation assay, cell line SK-N-MC): 242 nM
- IC50 (Homo sapiens, SK-N-SH, read-out: IC50 in cell proliferation assay, cell line SK-N-SH (ALK p.F1174L)): 415 nM
- IC50 (Homo sapiens, SNU-5, read-out: IC50 in cell proliferation assay, cell line SNU-5 (MET amplification)): 466 nM
- IC50 (Homo sapiens, SNU-16, read-out: IC50 in cell proliferation assay, cell line SNU-16 (FGFR2 amplification)): 1090 nM
- IC50 (Homo sapiens, SNU-C2B, read-out: IC50 in cell proliferation assay, cell line SNU-C2B (EGFR p.R165Q)): 352 nM
- IC50 (Homo sapiens, SU-DHL-1, read-out: IC50 in cell proliferation assay, cell line SU-DHL-1 (NPM1-ALK)): 19 nM
- IC50 (Homo sapiens, SU-DHL-6, read-out: IC50 in cell proliferation assay, cell line SU-DHL-6): 993 nM
- IC50 (Homo sapiens, SUP-T1, read-out: IC50 in cell proliferation assay, cell line SUP-T1): 956 nM
- IC50 (Homo sapiens, SW48, read-out: IC50 in cell proliferation assay, cell line SW48 (EGFR p.G719S)): 286 nM
- IC50 (Homo sapiens, SW480, read-out: IC50 in cell proliferation assay, cell line SW480): 1360 nM
- IC50 (Homo sapiens, SW626, read-out: IC50 in cell proliferation assay, cell line SW626): 551 nM
- IC50 (Homo sapiens, SW780, read-out: IC50 in cell proliferation assay, cell line SW780 (FGFR3-BAIAP2L1)): 483 nM
- IC50 (Homo sapiens, SW837, read-out: IC50 in cell proliferation assay, cell line SW837): 1950 nM
- IC50 (Homo sapiens, SW872, read-out: IC50 in cell proliferation assay, cell line SW872 (BRAF p.V600E)): 302 nM
- IC50 (Homo sapiens, SW900, read-out: IC50 in cell proliferation assay, cell line SW900): 315 nM
- IC50 (Homo sapiens, SW948, read-out: IC50 in cell proliferation assay, cell line SW948): 789 nM
- IC50 (Homo sapiens, SW982, read-out: IC50 in cell proliferation assay, cell line SW982 (BRAF p.V600E)): 323 nM
- IC50 (Homo sapiens, SW-620, read-out: IC50 in cell proliferation assay, cell line SW620): 527 nM
- IC50 (Homo sapiens, T98G, read-out: IC50 in cell proliferation assay, cell line T98G): 819 nM
- IC50 (Homo sapiens, TCC-SUP, read-out: IC50 in cell proliferation assay, cell line TCCSUP): 326 nM
- IC50 (Homo sapiens, THP-1, read-out: IC50 in cell proliferation assay, cell line THP-1): 1120 nM
- IC50 (Homo sapiens, U2OS, read-out: IC50 in cell proliferation assay, cell line U2OS): 224 nM
- IC50 (Homo sapiens, U-87 MG, read-out: IC50 in cell proliferation assay, cell line U-87MG ATCC): 2250 nM
- IC50 (Homo sapiens, U-118-MG, read-out: IC50 in cell proliferation assay, cell line U-118MG): 1330 nM
- IC50 (Homo sapiens, UMUC3, read-out: IC50 in cell proliferation assay, cell line UM-UC-3): 461 nM
- IC50 (Hs766T, read-out: IC50 in cell proliferation assay, Hs 766T cell line): 343 nM
- IC50 (L-82, read-out: IC50 in cell proliferation assay, L-82 cell line (NPM1-ALK)): 2 nM
- IC50 (Rh30, read-out: IC50 in cell proliferation assay, cell line Rh30): 355 nM
- IC50 (read-out: IC50 in cell proliferation assay, 11-18 cell line (EGFR p.L858R)): 580 nM
- IC50 (read-out: IC50 in cell proliferation assay, Hs 852.T cell line): 193 nM
- IC50 (read-out: IC50 in cell proliferation assay, JAR cell line): 476 nM
- IC50 (read-out: IC50 in cell proliferation assay, cell line 5637): 545 nM
- IC50 (read-out: IC50 in cell proliferation assay, cell line A-388): 1300 nM
- IC50 (read-out: IC50 in cell proliferation assay, cell line DB): 893 nM
- IC50 (read-out: IC50 in cell proliferation assay, cell line DEL (NPM1-ALK)): 2.58 nM
- IC50 (read-out: IC50 in cell proliferation assay, cell line ES-2 (BRAF p.V600E)): 712 nM
- IC50 (read-out: IC50 in cell proliferation assay, cell line PA-1): 489 nM
- IC50 (read-out: IC50 in cell proliferation assay, cell line PC-3): 889 nM
- IC50 (read-out: IC50 in cell proliferation assay, cell line RD): 290 nM
- IC50 (read-out: IC50 in cell proliferation assay, cell line RKO (BRAF p.V600E)): 1340 nM
- IC50 (read-out: IC50 in cell proliferation assay, cell line RL): 2600 nM
- IC50 (read-out: IC50 in cell proliferation assay, cell line RT-4 (FGFR3-TACC3)): 1390 nM
- IC50 (read-out: IC50 in cell proliferation assay, cell line SR (NPM1-ALK)): 22 nM
- IC50 (read-out: IC50 in cell proliferation assay, cell line T24): 329 nM
- IC50 (read-out: IC50 in cell proliferation assay, cell line TT (RET p.C634W)): 178 nM
- IC50 (read-out: IC50 in cell proliferation assay, cell line VA-ES-BJ): 431 nM
